In patent US20250345469A1, “COMPOSITION COMPRISING A RAPALOG AND A RADIOLABELLED GASTRIN ANALOGUE, IN PARTICULAR FOR USE IN THE TREATMENT AND/OR DIAGNOSIS OF CCKB RECEPTOR POSITIVE CANCER OR TUMORS” (Paul Scherrer Institut, priority 2020, published 2025):
Where two headings read alike, the source gives them in different places.

Legend:
A431/CCKBR cells [1] = experiment: In vitro radiolabelled peptide internalization assay; type: cell-based, human; details: for Protein levels as compared to control: A431/CCKBR cell lysates, 20 h treatment, FIG. 2B; for membrane bound activity: treated vs control cells, FIG. 2A
Procedure: (§1) 2.5×10^5 cells were seeded on 6-well plates. Eight hours later cells were treated with appropriate inhibitors (as indicated) for 20 h. […] After 1 or 2 h incubation, radioactive medium (together with PBS wash) was collected and the cells were subjected to 2× wash with glycine buffer (pH=2) for 5 min at RT followed by a dissolving step in 1 M NaOH for 15 min at 37° C. […] Protein concentration of NaOH-dissolved cell lysates was measured by spectrophotometry using a NanoPhotometer® UV-Vis P-Class (Implen).

[2] = system: mTORC1-regulated phosphorylation of ribosomal protein S6 at Ser235/236; experiment: WB analysis of phospho-S6 (mTORC1 activity); type: cell-based, human; details: A431/CCKBR cells, 20 h treatment, FIG. 2C
Procedure: The inhibitor activity of the rapamycin and/or rapalog towards mTORC1 can be determined by measuring the level of phosphorylation of ribosomal protein S6 by Western Blot analysis as described further below.
(§2) Antibodies against phospho-S6 at S235/S236 (D57.2.2F) and GAPDH (14C10) were obtained from Cell Signaling Technology, whereas anti-CCKBR (ab77077) was from Abcam. Cells were homogenized in lysis buffer (50 mM Tris-HCl pH 7.5, 150 mM NaCl, 1% Triton X, 0.1% SDS supplemented with 1 mM sodium orthovanadate, 1 mM NaF and protease inhibitor cocktail (Roche)). Aliquots of 50 μg protein extracts were separated by SDS-PAGE and transferred to PVDF membranes (Millipore) by electroblotting. Membranes were blocked with 5% skim milk in TBST (0.1% Tween 20) for 1 h, and incubated with 2% BSA in TBST overnight with the primary antibody followed by 2 h incubation with HRP-conjugated secondary antibody. Protein-specific signals were detected by a chemiluminescence reagent (ECL) and signals were acquired by using ImageQuant RT ECL Imager (GE Healthcare).

A431/CCKBR xenograft [3] = details: in vivo
Procedure: (§3) Immunocompromised CD-1 female nude mice (Charles Rivers, Germany) were housed one week before experimentation. Prior to tumor implantation, A431/CCKBR cells were harvested and 5 min cells in 0.1 mL of sterile phosphate-buffered saline (PBS) containing 0.9% NaCl were injected subcutaneously (two tumors per animal) into mice anesthetized by isoflurane/oxygen inhalation. After 5 days, animals were randomly distributed into 3 experimental groups and tumor size was measured non-invasively with a caliper. RAD001 (3 mg/kg), metformin (200 mg/kg) or PBS (control) were administered daily via intraperitoneal injection for 3 or 5 consecutive days, as indicated. […] Post mortem dissected tumors and organs were weighed and their activity was measured in a gamma counter.
(§4) To investigate the effects of RAD001 and metformin in vivo, A431/CCKBR cells were implanted subcutaneously into immunocompromised nude mice, and 5 days later after tumor formation, mice were subjected to treatment with RAD001, metformin or PBS (control) as described above.

A431/CCKBR tumors = experiment: Immunochemistry (HE and Ki67 staining) of tumor sections; type: in vivo, mouse; details: five daily doses; for necrosis (percent of necrotic area): PBS-treated tumors 1.4±1.2%; for mitotic index: control 1.08±0.2%; for Ki67 positive cells: control 80±3.1%
Procedure: Paraffin sections of formalin-fixed A431/CCKBR tumors were subjected to deparaffinization. Rehydrated slides were pretreated in 10 mM citrate buffer, pH 6.0, at 98° C. for 60 minutes, followed by incubation with 4% fat-free milk in PBS for 90 minutes. For avidin/biotin blocker treatment (Invitrogen) and detection, the ABC method was used according to the manufacturer's instructions. For monoclonal antibody against Ki67 (Thermo Scientific, SP6) signals were recorded using an automated instrument reagent system (Discovery XT, Ventana Medical System Inc.) according to the user manual. Images of hematoxylin-counterstained sections were captured (Nikon, YTHM) and analyzed using ImageAccess Enterprise7 and ImageJ software (Schneider et al. Nat Methods 2012, 9(7), 671-675).
Paraffin tumor sections prepared from A431/CCKBR-tumor bearing nude mice treated with five daily doses of RAD001, metformin and PBS (control) were subjected to immunohistochemistry. RAD001 and PBS group includes 5 tumors, while in metformin group 4 tumors were analyzed.

A431/CCKBR xenograft [4] = experiment: Biodistribution study in A431/CCKBR xenograft mouse model; details: three daily doses, FIG. 7B
Procedure: as §3, §4

A431/CCKBR cells [5] = experiment: Proliferation assay (CellTiter 96 AQueous, MTS); type: cell-based, human; details: 10 μM kinase inhibitor; FIG. 1C
Procedure: Cells were seeded in 96-well plates before treatment as described above, and cell proliferation was analyzed by a CellTiter 96 AQueous Non-Radioactive Cell Proliferation Assay (Promega) according to the manufacturer's instructions. Absorbance of MTS bio-reduced into a formazan was measured at 570 nm with a reference of 650 nm using a MicroPlate Reader (PerkinElmer). The assay was performed in triplicate.

[6] = system: A431/CCKBR-tumor bearing nude mice; experiment: Animal therapeutic study: tumor growth and survival; type: in vivo, mouse; details: for average tumor size on day 13: control 0.97 cm^3; for Median Survival: control 19.5
Procedure: For the animal study, human epidermoid carcinoma A431 cell line, which overexpresses CCKBR, was generated previously and kindly provided by Dr. Luigi Aloj. A431/CCKBR cells were cultured in DMEM, supplemented with 10% FCS, 2 mM glutamine and antibiotics (0.1 mg/mL streptomycin, 100 IU penicillin) at 37° C. and 5% CO2. […] RAD001 (3 mg/kg), or PBS (control) were administered via intraperitoneal injection daily for 5 or 10 days, as indicated. […] The tumor diameters and mice weight were recorded daily. The tumor volume was calculated by using the formula V=(W2×L)/2. The nude mice were sacrificed when the tumor volume exceeded 1.5 cm^3. […] These mice were excluded from the analysis.
In this experiment, GraphPad Prism 7.00 for Windows was used for all statistical analysis. One-way ANOVA combined with two-stage linear step-up procedure of Benjamini, Krieger and Yekutieli for multiple comparison test was used for all treated groups. Log-rank (Mantel-Cox) test was performed to compare different survival curves of the treatment groups with the control group. Endpoints were defined as death in the survival curves. Values of P≤0.05 were considered statistically significant.

CCKBR = experiment: WB analysis of CCKBR expression in deglycosylated lysates; type: cell-based, human; details: 50 nM or 100 nM RAD001, 20 h, A431/CCKBR cells
Procedure: For CCKBR-specific knock-down, duplex siRNAs against CCKBR or control duplex against luciferase (Microsynth) were used at a final concentration of 100 nM in Optimem (Gibco): CCKBRseq1 sense RNA 5′-[…]dTdT-3′(SEQ ID NO:5), CCKBRseq2 sense RNA 5′-[…]dTdT-3′(SEQ ID NO:6) and control sense RNA 5′-[…]dTdT-3′(SEQ ID NO:7). Cells at 60-80% confluence were transfected with siRNAs by using Lipofectamin 3000 according to the user's manual. Total protein lysates were subjected to WB analysis.
as §2, with “Healthcare). […]” for “Healthcare).”

AR42J cells = experiment: In vitro radiolabelled peptide internalization assay; type: cell-based, rat; details: AR42J cell lysates, FIG. 2B
Procedure: as §1

| SMILES | Protein levels as compared to control (A431/CCKBR cells [1]) | membrane bound activity (A431/CCKBR cells [1]) | phosphorylation of ribosomal protein S6 at Ser235/236 [2] | mouse weight (A431/CCKBR xenograft [3]) | necrosis (percent of necrotic area) (A431/CCKBR tumors) | mitotic index (A431/CCKBR tumors) | Ki67 positive cells (A431/CCKBR tumors) | tumor volume (A431/CCKBR xenograft [4]) | changes in cell proliferation (A431/CCKBR cells [5]) | average tumor size on day 13 ([6]; 5 doses of RAD001 (3 mg/kg i.p. daily)) | average tumor size on day 13 ([6]; 10 doses of RAD001 (3 mg/kg i.p. daily)) | Median Survival ([6]; RAD001 5x) | Median Survival ([6]; RAD001 10x) | tumor growth ([6]; vs control, FIG. 10B) | increase of the CCKBR expression (CCKBR) | Protein levels as compared to control (AR42J cells) | mouse weight (A431/CCKBR xenograft [4]) |
| --- | --- | --- | --- | --- | --- | --- | --- | --- | --- | --- | --- | --- | --- | --- | --- | --- | --- |
| CN(C)C(=N)N=C(N)N [metformin] | 79% | no significant difference in membrane bound activity | lack of mTORC1-regulated phosphorylation of ribosomal protein S6 at Ser235/236 | no effect on tumor volume or mouse weight | did not show significant difference | did not cause significant change | did not cause significant change | no effect on tumor volume or mouse weight | – | – | – | – | – | – | – | – | – |
| O=C(O)c1ccc2nc(-c3ccccc3)c(-c3ccccc3)nc2c1 [BML257] | – | – | – | – | – | – | – | – | did not show significant changes in cell proliferation | – | – | – | – | – | – | – | – |
| CO[C@H]1C[C@@H]2CC[C@@H](C)[C@@](O)(O2)C(=O)C(=O)N2CCCC[C@H]2C(=O)O[C@H]([C@H](C)C[C@@H]2CC[C@@H](OCCO)[C@H](OC)C2)CC(=O)[C@H](C)/C=C(\C)[C@@H](O)[C@@H](OC)C(=O)[C@H](C)C[C@H](C)/C=C/C=C/C=C/1C [RAD001, Everolimus] | 80% | no significant difference in membrane bound activity | lack of mTORC1-regulated phosphorylation of ribosomal protein S6 at Ser235/236 | – | 10.6±6.4% | 0.75±0.36% | 61±8.6% | significantly reduced tumor volumes | – | 0.31 cm^3 | 0.11 cm^3 | 27 days | 32 days | significantly inhibited tumor growth | approximately 2.2 fold | 84% | without influencing overall mouse weight |
| CO[C@H]1C[C@@H]2CC[C@@H](C)[C@@](O)(O2)C(=O)C(=O)N2CCCC[C@H]2C(=O)O[C@H]([C@H](C)C[C@@H]2CC[C@@H](O)[C@H](OC)C2)CC(=O)[C@H](C)/C=C(\C)[C@@H](O)[C@@H](OC)C(=O)[C@H](C)C[C@H](C)/C=C/C=C/C=C/1C [rapamycin] | – | – | – | – | – | – | – | – | did not show significant changes in cell proliferation | – | – | – | – | – | – | – | – |
